Tests used:
[1] = system: Tau protein at Serin396 in differentiated SH-SY5Y cells; assay: In vitro SH-SY5Y assay, tau phosphorylation; assay type: cell-based, human; settings: RA- and BDNF-differentiated SH-SY5Y cells, 90-120 min incubation, Western Blot or ELISA
Source text: Abnormal tau phosphorylation and deregulated CDK5/p35 activity are closely linked to each other and represent hallmarks of neurodegenerative diseases such as Alzheimer's disease, Parkinson's disease or Amyotrophic lateral sclerosis. The human neuroblastoma cell line SH-SY5Y can be utilized as an in vitro model to investigate CDK5 function and the efficacy of CDK5 specific inhibitors. SH-SY5Y cells express tau protein which harbors various phosphorylation sites known to be phosphorylated by several kinases including CDK5. SH-SY5Y cells can be differentiated into neuron-like cells by exposure to 10 μM all trans-retinoic acid for 3 days and subsequent exposure to 50 ng/ml human recombinant brain-derived neurotrophic factor for 3-5 days, thereby upregulating neuronal markers, including tau protein. In addition CDK5 and p35 protein levels were increased during differentiation. […]
Concentrations of total tau, pS396 tau and pT231 tau within the cell culture lysates are measured by using commercial ELISA Kits (BioSource: human total tau: KHB0042; human pS396 tau: KHB7031; human pT231 tau: KHB7051) according to the manufacturers instructions or by using Western Blots probing with total and phospho-specific antibodies (antibodies: total tau: Santa Cruz, sc-21796; pS396 tau: Santa Cruz, sc-12414; pT231 tau, AT180: Pierce Endogen, MN1040; pS202 tau: AT8: Pierce Endogen, MN1020). […]

| melting point | SMILES | effect on Tau phosphorylation at Serin396 [1] |
| --- | --- | --- |
|  | NS(=O)(=O)Cc1ccc(Nc2cc(-c3ccccc3OCc3ccccc3)ncn2)cc1 [Compound 8, {4-[6-(2-Benzyloxy-phenyl)-pyrimidin-4-ylamino]-phenyl}-methanesulfonamide] | significant inhibitory effect |
| 213.5 to 215.1 °C | CCOc1ccccc1-c1cc(Nc2ccc(CS(N)(=O)=O)cc2)ncn1 [Compound 6, {4-[6-(2-Ethoxy-phenyl)-pyrimidin-4-ylamino]-phenyl}-methanesulfonamide] |  |
| 149.2 to 150.8 °C | COCCCNS(=O)(=O)Cc1cccc(Nc2cc(-c3ccccc3OC)ncn2)c1 [Reference compound 3, C-{3-[6-(2-methoxy-phenyl)-pyrimidin-4-ylamino]-phenyl}-N-(3-methoxy-propyl)-methanesulfonamide] |  |
